Reference: patent publication US20250375401A1, “PHARMACEUTICAL COMPOSITION CONTAINING DEMETHYLZEYLASTERAL FOR PREVENTION OR TREATMENT OF DISEASES CAUSED BY MUSCLE LOSS” (SEOUL NATIONAL UNIVERSITY R&DB FOUNDATION, priority 2022, published 2025)

What was measured:
myoblast cell line C2C12 [1] = assay: Western blot of total MHC and MuRF-1 in dexamethasone-induced cell model; assay type: cell-based, mouse; settings: C2C12 myotubes, 0.5 or 1 μM demethylzeylasteral with 100 μM dexamethasone, 48 hours, western blot (FIG. 5)
Protocol: Specifically, myoblast cell line C2C12 from mouse were seeded in 6 cm dishes and incubated for 72 hours.

myoblast cell line C2C12 [2] = assay: Myocyte differentiation in dexamethasone-induced cell model (total MHC immunofluorescence and DAPI staining); assay type: cell-based, mouse; settings: C2C12 myotubes, 0.5 or 1 μM demethylzeylasteral with 100 μM dexamethasone
Protocol: dexamethasone-induced cell model, the following experiments were performed. Specifically, myoblast cell line C2C12 from mouse were seeded in 6 cm dishes and incubated for 72 hours. Then, the media were replaced to differentiation media to differentiate myoblasts into myotubes for 48 hours. After myotubes were formed, they were teated with 100 μM dexamethasone and 0.5, or 1 μM demethylzeylasteral for 72 hours while replacing the differentiation media every 24 hours. The differentiation media were suctioned off, and the dishes in which the cells were incubated were washed three times with PBS. Then, the cells were fixed with 4% formaldehyde, permeabilized with PBS containing 0.1% Triton-X 100 for 10 minutes, and blocked with PBS containing 3% bovine serum albumin for 1 hour. The cells were treated with total MHC antibodies, a biomarker for myocyte differentiation, followed by Alexa 488-conjugated secondary antibodies, and teated with DAPI for staining nuclei. The ratio of MHC+ nuclei to the total number of nuclei was calculated and plotted as a differentiation index, and the total number of nuclei stained with DAPI was also counted and plotted.

C[C@@]1(C(=O)O)CC[C@]2(C)CC[C@]3(C)C4=CC(=O)c5c(cc(O)c(O)c5C=O)[C@]4(C)CC[C@@]3(C)[C@@H]2C1 [demethylzeylasteral, (2R,4aS,6aR,6aS,14aS,14bR)-9-formyl-10,11-dihydroxy-2,4a,6a,6a,14a-pentamethyl-8-oxo-1,3,4,5,6,13,14,14b-octahydropicene-2-carboxylic acid]
expression of MuRF-1 (biomarker for muscle degradation) (myoblast cell line C2C12 [1]): significantly reduced expression | expression of total MHC (biomarker for myocyte differentiation in late stage) (myoblast cell line C2C12 [1]): significantly increased expression | myocyte differentiation index (total number of MHC+ nuclei divided by total number of nuclei) (myoblast cell line C2C12 [2]; 72 hours (FIG. 3)): significantly increased and restored | number of nuclei (DAPI staining) (myoblast cell line C2C12 [2]; 72 hours (FIG. 4)): significantly increased
